According to ChEMBL document CHEMBL1151657, “Flavonoids from the Wood of Salix caprea as Inhibitors of Wood-Destroying Fungi” (1985):

Tests used:
Format in all cases: functional
[1] = test system: Trichoderma viride; test: Antimicrobial activity against Trichoderma viride after 60 mins by agar diffusion method
[2] = test system: Coniophora puteana; test: Antimicrobial activity against Coniophora puteana after 60 mins by agar diffusion method
[3] = test system: Sporotrichum; test: Antimicrobial activity against Sporotrichum pulverulentum after 60 mins by agar diffusion method
[4] = test system: Trichophyton mentagrophytes; test: Antimicrobial activity against Trichophyton mentagrophytes after 60 mins by agar diffusion method
[5] = test system: Enterococcus faecalis; test: Antimicrobial activity against Streptococcus faecalis after 30 mins by agar diffusion method
[6] = test system: Escherichia coli; test: Antimicrobial activity against Escherichia coli after 30 mins by agar diffusion method
[7] = test system: Staphylococcus aureus; test: Antimicrobial activity against Staphylococcus aureus after 30 mins by agar diffusion method
[8] = test system: Coniophora puteana; test: Antimicrobial activity against Coniophora puteana at 1% concentration after 60 mins by agar diffusion method
[9] = test system: Trichoderma viride; test: Antimicrobial activity against Trichoderma viride at 1% concentration after 60 mins by agar diffusion method
[10] = test system: Sporotrichum; test: Antimicrobial activity against Sporotrichum pulverulentum at 1% concentration after 60 mins by agar diffusion method
[11] = test system: Coniophora puteana; test: Antimicrobial activity against Coniophora puteana at 0.01% concentration after 60 mins by agar diffusion method
[12] = test system: Sporotrichum; test: Antimicrobial activity against Sporotrichum pulverulentum at 0.01% concentration after 60 mins by agar diffusion method

| SMILES | inhibition zone (IZ) [1] [mm] | inhibition zone (IZ) [2] [mm] | inhibition zone (IZ) [3] [mm] | further results |
| --- | --- | --- | --- | --- |
| O=C1c2c(O)cc(O)cc2O[C@H](c2ccc(O)c(O)c2)[C@H]1O [(+)-TAXIFOLIN] | 10 |  |  |  |
| O=[N+]([O-])c1c(Cl)c(Cl)c(Cl)c(Cl)c1Cl [PENTACHLORONITROBENZENE] | 10 | 10 | <10 |  |
| O=C1c2c(O)cc(O)cc2O[C@H](c2ccc(O)cc2)[C@H]1O [DIHYDROKAEMPFEROL] |  | 10 |  |  |
| Oc1cc(O)c2c(c1)O[C@H](c1ccc(O)c(O)c1)[C@@H](O)C2 [CIANIDANOL] | 10 |  |  |  |
| O=C1C[C@@H](c2ccc(O)cc2)Oc2cc(O)cc(O)c21 [NARINGENIN] | 10 | 10 | 10 | inhibition zone (IZ) [4]: 11 mm; inhibition zone (IZ) [5]: 10 mm; inhibition zone (IZ) [6]: 8 mm; inhibition zone (IZ) [7]: 17.2 mm |
| O=C1C2CC=CCC2C(=O)N1SC(Cl)(Cl)Cl (stereo unspecified) [CAPTAN] |  |  |  | inhibition zone (IZ) [8]: >25 mm; inhibition zone (IZ) [9]: 15 mm; inhibition zone (IZ) [10]: >25 mm; inhibition zone (IZ) [11]: 10 mm; inhibition zone (IZ) [12]: 15 mm |
| COc1ccc(C2Oc3cc(O)cc(O)c3C(=O)C2O)cc1 (stereo unspecified) [DIHYDROKAEMPFERIDE] |  | <10 |  | inhibition zone (IZ) [7]: 8 mm |
| O=C1C[C@@H](c2ccc(O)cc2)Oc2cc(O[C@@H]3O[C@H](CO)[C@@H](O)[C@H](O)[C@H]3O)cc(O)c21 [PRUNIN] |  |  | 15 |  |
